Measurements as given in PubChem BioAssay (NCI).
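Five compound concentrations were applied to cells in 96-well plates for 48 hours; endpoints were derived by simple linear interpolation of the resulting dose-response curve. TGI denotes the concentration required for complete inhibition of growth.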

Experiments:
Test in all cases: NCI tumour cell line growth inhibition, 48 h
[1] = tested on: HOP-18 NSCLC
[2] = tested on: IGROV1 ovarian
[3] = tested on: KM12 colon
[4] = tested on: KM20L2 colon
[5] = tested on: MALME-3M melanoma
[6] = tested on: MCF7 breast
[7] = tested on: NCI-H226 lung
[8] = tested on: NCI-H460 lung
[9] = tested on: NCI/ADR-RES ovarian
[10] = tested on: OVCAR-5 ovarian
[11] = tested on: P388 leukemia
[12] = tested on: P388/ADR leukemia
[13] = tested on: SN12C renal
[14] = tested on: SN12K1 renal
[15] = tested on: SW-620 colon
[16] = tested on: UO-31 renal
[17] = tested on: ACHN renal
[18] = tested on: CAKI-1 renal
[19] = tested on: M14 melanoma
[20] = tested on: TK-10 renal

Structure (SMILES) | TGI [1] [µM] | TGI [2] [µM] | TGI [3] [µM] | TGI [4] [µM] | TGI [5] [µM] | TGI [6] [µM] | TGI [7] [µM] | TGI [8] [µM] | TGI [9] [µM] | TGI [10] [µM] | TGI [11] [µM] | TGI [12] [µM] | TGI [13] [µM] | TGI [14] [µM] | TGI [15] [µM] | TGI [16] [µM] | TGI [17] [µM] | TGI [18] [µM] | TGI [19] [µM] | TGI [20] [µM]
Cc1cc(N=Nc2ccc(N=Nc3c(O)c(S(=O)(=O)O)cc4cc(S(=O)(=O)O)ccc34)cc2C)ccc1N=Nc1ccc2cc(S(=O)(=O)O)cc(S(=O)(=O)O)c2c1 | > 100 | > 100 | > 100 | > 100 | > 100 | > 100 | > 100 | > 100 | > 100 | > 100 | > 73.1 | > 100 | > 100 | > 100 | > 100 | > 100 | – | – | – | –
CC1OC(OC2CC(O)(C(=O)CO)Cc3c(O)c4c(c(O)c32)C(=O)c2ccccc2C4=O)CC(N)C1O (configuration not stated) | 0.0358 | 3.52 | 4.59 | 0.779 | 0.0864 | – | < 0.0228 | 0.0366 | – | 0.721 | – | – | 0.887 | – | 2.48 | 0.267 | 0.134 | 0.088 | 0.229 | –
COc1cc2c(cc1OC)C(Cc1c3ccccc3cc3ccccc13)N(C)CC2 (configuration not stated) | 50.4 | 65.4 | 35.9 | 40.5 | – | 33.7 | 60.2 | 61.3 | > 74.1 | 40.2 | 47.6 | 35 | > 100 | 30.3 | > 71.5 | 57.4 | – | > 100 | – | –
CCOC(=O)NC(=O)c1cn(CCSCCOC(=O)NCCCCCCNC(=O)OCCSCCn2cc(C(=O)NC(=O)OCC)c(=O)[nH]c2=O)c(=O)[nH]c1=O | > 100 | > 100 | – | > 100 | > 100 | – | – | > 100 | – | – | – | – | > 100 | – | > 100 | > 100 | > 100 | > 100 | > 100 | > 100
O=C(O)CNS(=O)(=O)c1ccc(NC(=O)Nc2ccccc2)cc1 | > 100 | > 54.4 | > 100 | > 100 | > 100 | > 100 | > 100 | > 100 | > 100 | > 100 | > 100 | > 100 | > 100 | > 100 | > 100 | > 100 | – | > 100 | – | –
COC(=O)NN1C(=O)C(=P(c2ccccc2)(c2ccccc2)c2ccccc2)C(C(=O)OC)=C1C | > 100 | > 100 | – | > 100 | > 100 | – | > 100 | > 100 | – | – | – | – | > 100 | – | > 100 | > 100 | > 100 | > 100 | > 100 | > 100
Cn1c(=O)c2nc(N3CCCCC3)cnc2n(C)c1=O | – | > 100 | > 100 | > 100 | > 100 | – | – | > 100 | – | > 100 | – | – | > 100 | – | > 100 | > 100 | > 100 | > 100 | > 100 | > 100
CC1=C2C(O)C(C(C)C(=O)NC(C)C)CCC2(C)C=CC1=O (configuration not stated) | > 100 | > 100 | > 100 | > 100 | – | > 100 | > 100 | > 100 | > 100 | > 100 | > 100 | > 100 | > 100 | > 100 | > 100 | > 100 | – | > 100 | – | –
CC(C)(O)[C@H](CCO)O[Si](c1ccccc1)(c1ccccc1)C(C)(C)C | 11.1 | 25.3 | 25.5 | 23.9 | 31.5 | – | – | 26.7 | – | 28.1 | – | – | 14 | – | 26.8 | 23 | 19.7 | – | 25.8 | 25.9
CCNCCCCNCC | > 37.5 | > 3750 | > 3750 | > 3750 | > 3750 | > 3750 | > 3750 | > 1190 | > 3750 | > 3750 | > 3750 | > 3750 | > 3750 | > 3750 | > 3750 | > 3400 | – | > 3750 | – | –
